Data as given in patent US10010576B2, “Method of treatment” (Hexima Limited, priority 2014, dated 2018).

Columns and labels:
[1] = Penetration through human nails (nail adapter, wetted cotton bud receptor, RP-HPLC); type: in vitro ADME
Method: Penetration of NaD1 through human nails was measured according to the method of Hui et al. (2002) J Pharm Sci 91(1):189-195. Human toenails were obtained from ScienceCare (USA) and washed with phosphate buffered saline (details, PBS) before being placed on a kimwipe that had been soaked in PBS for 3 h to rehydrate the nail. […]
The cotton bud in contact with the underside of the nail was removed after 24 h and every 24 h following. Protein that had passed through the nail was recovered from the cotton bud by washing twice with 500 μL of 0.1% v/v trifluoroacetic acid. Recovered protein was quantified using RP-HPLC.

[2] = tested on: T. interdigitale; assay: Antifungal growth inhibition assay in 96 well microtitre plates (A595); type: cell-based, Trichophyton interdigitale
Method: (§1) The inhibitory effects of the plant defensins on the growth of Trichophyton rubrum, T. interdigitale, Microsporum fulvum and C. albicans (obtained from the National Mycology Reference Centre, South Australia Pathology at the Women's and Children's Hospital, Adelaide, Australia) are measured essentially as described by Broekaert et al. (1990) FEMS Microbiol Lett 69:55-59. Spores of T. rubrum, T. interdigitale and M. fulvum are isolated from sporulating fungus growing on 1⁄2 strength Sabouraud dextrose agar (SDA). Spores were removed from the plates by the addition of 1⁄2 strength potato dextrose broth (PDB). C. albicans cells are grown in Yeast Peptone Broth (YPD) for 16 h. Spore and cell concentrations are measured using a hemocytometer. Antifungal assays are conducted in 96 well microtitre plates essentially as herein described. Wells are loaded with 20 μm L of filter sterilized (0.22 μm syringe filter, Millipore) defensin (10× stock for each final concentration) or water and 80 μm L of 5×10^4 spores/mL (T. rubrum, T. interdigitale, M. fulvum) or 5,000 cells/mL (C. albicans) in 1⁄2 strength PDB. The plates are incubated at 30° C. Fungal growth is assayed by measuring optical density at 595 nm ([…]) using a microtitre plate reader (SpectraMax Pro M2; Molecular Devices. Growth is allowed to proceed until the optical density (OD) of the fungus in the absence of any test defensin reached an OD of 0.2. Each test is performed in duplicate.

[3] = tested on: Human monocytic lymphoma (U937) cells; type: cell-based
Method: Human monocytic lymphoma (U937) cells are cultured in RPMI-1640 medium. All culture media are supplemented with 5-10% v/v fetal calf serum, 100 U/ml of penicillin, and 100 μg/ml of streptomycin. Cell lines are cultured at 37° C. in a humidified atmosphere containing 5% v/v CO2. Adherent cell lines are detached from the flask by adding a mixture containing 0.25% v/v trypsin and […] EDTA. A flow cytometry-based propidium iodide (PI) uptake assay is performed to analyze the ability of plant defensins to permeabilize U937 cells (essentially as described in Poon et al, 2014). Briefly, cells are suspended to 1×10^6 cells/ml in 0.1% v/v BSA/RPMI-1640 and incubated with plant defensins (10 μM) at 37° C. for 30 min Samples are added to PBS containing a final concentration of 1 μg/ml PI and placed on ice. Samples are then analyzed immediately using the BD FACSCanto II Flow Cytometer and BD FACSDiva software v6.1.1. The resultant flow cytometry data is analyzed using FlowJo software v8.8.6. Cells are gated appropriately based on forward scatter and side scatter and cell permeabilization is defined by PI-positive staining.

[4] = tested on: C. albicans; assay: Antifungal growth inhibition assay in 96 well microtitre plates (A595); type: cell-based, Candida albicans
Method: as §1

[5] = tested on: Microsporum fulvum; assay: as above; type: cell-based
Method: as §1

[6] = tested on: Trichophyton rubrum; assay: as above; type: cell-based
Method: as §1

[7] = tested on: Escherichia coli; assay: Inhibition of the growth of Escherichia coli; type: cell-based; conditions: 0.1625 μM to 10 μM, 18 hours at 37° C., OD595
Method: A single E. coli colony was used to inoculate 5 ml of Luria-Bertani media and grown overnight at 37° C. The following day, the optical density of the culture was measured and the E. coli diluted to an optical density at 600 nm (OD600) of 0.01 in Mueller-Hinton Broth. Diluted E. coli were added to 96-well plates with defensins at concentrations of 10 μM, 5 μM, 2.5 μM, 1.25 μM, 0.625 μM, 0.3125 μM or 0.1625 μM. Plates were read at OD595 to obtain time zero data points. Plates were incubated at 37° C. for 18 hours before reading again at OD595 to assess the amount of E. coli growth.

[8] = tested on: Trichophyton rubrum; assay: Inhibition of the growth of Trichophyton rubrum over 28 days; type: cell-based
Method: The inhibitory effect of HXL008 on the growth of Trichophyton rubrum (obtained from the National Mycology Reference Centre, South Australia Pathology at the Women's and Children's Hospital, Adelaide, Australia) was monitored over 28 days.
Spores of T. rubrum, are isolated from sporulating fungus growing on ½ strength Sabouraud dextrose agar. Spores are removed from the plates by the addition of ½ strength potato dextrose broth (PDB). Spore and cell concentrations are measured using a hemocytometer.
Spores were diluted to a concentration of 5×10^4 spores/mL in ½ PBD (2 mL) containing 0, 10 or 50 μg/mL HXL008. Cultures are incubated at 30 C without shaking. After 24 h, 100 μL of each culture is extracted and plated onto ½ SDA plates. An additional 100 uL of ½ PDB is then added containing either 0, 20 or 100 μg of HXL008. SDA plates are then incubated at 30 C for 5 days. This process is repeated every 24 h for 28 days. After 15 days, the culture containing no HXL008 becomes too thick to pipette and is no longer used in the assay.

[9] = tested on: clinical isolates of T. rubrum; assay: Cell survival assay for clinical isolates of T. rubrum (plating after incubation); type: cell-based, Trichophyton rubrum; conditions: incubated with 100 µg/mL HXL008 for 72 h, plated on Sabouraud dextrose agar, 5 days at 30° C.
Method: After incubation for 72 h, the media from wells containing clinical isolates of T. rubrum incubated with 100 […] HXL008 was plated onto fresh Sabouraud dextrose agar. Plates were incubated at 30° C. for 5 days to allow colonies to develop before being photographed.

[10] = tested on: Trichophyton rubrum, T. interdigitale, Microsporum fulvum and C. albicans; assay: Inhibition assays, summary across the range of fungal pathogens; type: cell-based; conditions: summary of Table 3
Method: as §1

Row | Substance | Nail penetration [1] | IC50 against T. interdigitale [2] [µg/mL] | Cells permeabilized (PI-positive) [3] | IC50 against C. albicans [4] [µg/mL] | IC50 against M. fulvum [5] [µg/mL] | IC50 against T. rubrum [6] [µg/mL] | Inhibition of growth of E. coli [7] | Visible growth of T. rubrum in culture ([8]; 10 μg/mL or 50 μg/mL, over the duration of the assay (28 days)) | T. rubrum cells killed ([8]; 50 μg/mL, within 24 h) | T. rubrum cells dead ([8]; after 20 days of treatment) | Surviving colonies per plate ([8]; after 20 days of treatment, 100 μL of culture plated) [colony] | Surviving colonies on agar plates [9] | Antifungal activity across the range of fungal pathogens [10]
1 | NaD1: Solanaceous Class II plant defensin from Nicotiana alata, SEQ ID NO:18 (RECKTESNTFPGICITKPPCRKACISEKFTDGHCSKILRRCLCTKPC; NaD1 Nicotiana alata) | able to penetrate nails faster and more effectively than the active ingredients of current topical onychomycosis therapies | 10 | 33% | 20 | 5.3 | 8 | did not inhibit growth of E. coli at the concentrations tested |  |  |  |  |  | 
2 | HXL008: Class I plant defensin from Picramnia pentandra, SEQ ID NO:1 (KVCTKPSKFFKGLCGTDGACTTACRKEGLHSGYCQLKGFLNSVCVCRKHC; HXL008 Picramnia pentandra) | able to penetrate nails faster and more effectively than the active ingredients of current topical onychomycosis therapies | 3.5 | less than 2% | 20 | 7 | 3 | did not inhibit growth of E. coli at the concentrations tested | did not display any visible growth | more than 80% | more than 99.5% | ≤ 1 | 1-3 colonies | the most effective plant defensins across the range of fungal pathogens
3 | HXL004: Class I plant defensin from Nicotiana benthamiana, SEQ ID NO:7 (Table 1) (RTCESQSHRFKGLCFSRSNCASVCHTEGFNGGHCRGFRRRCFCTRHC; HXL004 Nicotiana benthamiana) | able to penetrate nails faster and more effectively than the active ingredients of current topical onychomycosis therapies | 19 | 13% | 20 | 12 | 27.5 | inhibited the growth of E. coli in a concentration dependent manner |  |  |  |  |  | intermediate activity
4 | LL37: human antimicrobial peptide used as a control (LLGDFFRKSKEKIGKEFKRIVQRIKDFLRNLVPRTES; Antibacterial peptide LL-37; UniProt P49913 134-170, looked up) [reference compound] |  |  |  |  |  |  | inhibited the growth of E. coli in a concentration dependent manner |  |  |  |  |  | 
